Source: PubChem BioAssay (NCI)
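Five compound concentrations were applied to cells in 96-well plates for 48 hours; endpoints were derived by simple linear interpolation of the resulting dose-response curve. GI50 is the concentration that inhibits growth by half. The concentration for full growth arrest is given as TGI.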

Columns and labels:
Assay in all cases: growth of human tumour cells (NCI), 48 h
[1] = test system: BT-549 breast
[2] = test system: RXF 393 renal
[3] = test system: HCC-2998 colon
[4] = test system: DU-145 prostate
[5] = test system: CAKI-1 renal
[6] = test system: SK-MEL-5 melanoma
[7] = test system: UO-31 renal
[8] = test system: UACC-62 melanoma
[9] = test system: ACHN renal
[10] = test system: MCF7 breast
[11] = test system: SW-620 colon
[12] = test system: RPMI-8226 leukemia
[13] = test system: KM12 colon
[14] = test system: IGROV1 ovarian
[15] = test system: NCI/ADR-RES ovarian
[16] = test system: OVCAR-4 ovarian
[17] = test system: NCI-H23 lung
[18] = test system: 786-0 renal
[19] = test system: HOP-92 NSCLC
[20] = test system: MDA-MB-435
[21] = test system: MALME-3M melanoma
[22] = test system: NCI-H522 lung
[23] = test system: OVCAR-3 ovarian
[24] = test system: SN12C renal
[25] = test system: PC-3 prostate
[26] = test system: OVCAR-5 ovarian
[27] = test system: SK-MEL-2 melanoma
[28] = test system: U251 CNS
[29] = test system: NCI-H460 lung
[30] = test system: SF-539 CNS
[31] = test system: HCT-15 colon
[32] = test system: EKVX NSCLC
[33] = test system: TK-10 renal
[34] = test system: MDA-MB-231 breast
[35] = test system: A498 renal
[36] = test system: MOLT-4 leukemia
[37] = test system: OVCAR-8 ovarian
[38] = test system: UACC-257 melanoma
[39] = test system: HOP-62 NSCLC
[40] = test system: SF-295 CNS
[41] = test system: SF-268 CNS
[42] = test system: SR leukemia
[43] = test system: LOX IMVI melanoma
[44] = test system: A549 NSCLC
[45] = test system: NCI-H226 lung
[46] = test system: HCT-116 colon
[47] = test system: HS 578T breast
[48] = test system: M14 melanoma

COc1n[n+]([O-])c(C)cc1[N+](=O)[O-]
GI50 [1]: 18.9 µM
TGI [1]: 33.2 µM
GI50 [2]: 13.3 µM
TGI [2]: 28.7 µM
GI50 [3]: 14.3 µM
TGI [3]: 27.6 µM
GI50 [4]: 15.7 µM
TGI [4]: 29.3 µM
GI50 [5]: 4.84 µM
TGI [5]: 19.1 µM
GI50 [6]: 11.3 µM
TGI [6]: 24.5 µM
GI50 [7]: 12.6 µM
TGI [7]: 25.4 µM
GI50 [8]: 10.7 µM
TGI [8]: 23.7 µM
GI50 [9]: 5.14 µM
TGI [9]: 18.1 µM
GI50 [10]: 2070 nM
TGI [10]: 16.2 µM
GI50 [11]: 15.7 µM
TGI [11]: 39.6 µM
GI50 [12]: 2730 nM
TGI [12]: 19.1 µM
GI50 [13]: 11.4 µM
TGI [13]: 30.3 µM
GI50 [14]: 12.1 µM
TGI [14]: 24.8 µM
GI50 [15]: 19.1 µM
TGI [15]: 43.7 µM
GI50 [16]: 16.1 µM
TGI [16]: 30.5 µM
GI50 [17]: 14.8 µM
TGI [17]: 30.3 µM
GI50 [18]: 8.4 µM
TGI [18]: 21.7 µM
GI50 [19]: 16.2 µM
TGI [19]: 35.2 µM
GI50 [20]: 16.2 µM
TGI [20]: 33.8 µM
GI50 [21]: 3.04 µM
TGI [21]: 9.85 µM
GI50 [22]: 8.26 µM
TGI [22]: 22.7 µM
GI50 [23]: 8.44 µM
TGI [23]: 28.4 µM
GI50 [24]: 13.5 µM
TGI [24]: 31.6 µM
GI50 [25]: 15.9 µM
TGI [25]: 32.6 µM
GI50 [26]: 19.6 µM
TGI [26]: 35.9 µM
GI50 [27]: 11.2 µM
TGI [27]: 24.5 µM
GI50 [28]: 16.8 µM
TGI [28]: 34.5 µM
GI50 [29]: 3.05 µM
TGI [29]: 16.4 µM
GI50 [30]: 19.5 µM
TGI [30]: 35.4 µM
GI50 [31]: 2740 nM
TGI [31]: 13.9 µM
GI50 [32]: 18.1 µM
TGI [32]: 34.3 µM
GI50 [33]: 2420 nM
TGI [33]: 10.2 µM
GI50 [34]: 19.5 µM
TGI [34]: 42.2 µM
GI50 [35]: 20.2 µM
TGI [35]: 46.3 µM
GI50 [36]: 10.7 µM
TGI [36]: 35.1 µM
GI50 [37]: 13.4 µM
TGI [37]: 39.5 µM
GI50 [38]: 10.9 µM
TGI [38]: 24.4 µM
GI50 [39]: 16.6 µM
TGI [39]: 31.5 µM
GI50 [40]: 11.3 µM
TGI [40]: 28.5 µM
GI50 [41]: 18.1 µM
TGI [41]: 39.4 µM
GI50 [42]: 11.1 µM
TGI [42]: 31.2 µM
GI50 [43]: 12.7 µM
TGI [43]: 36 µM
GI50 [44]: 5.5 µM
TGI [44]: 24.6 µM
GI50 [45]: 24.4 µM
TGI [45]: 63.3 µM
GI50 [46]: 10.2 µM
TGI [46]: 23.9 µM
GI50 [47]: 32.3 µM
TGI [47]: 67.3 µM
GI50 [48]: 4.97 µM
TGI [48]: 18.3 µM
